Reference: article PMC5109658, “Antibacterial and cytotoxic cytochalasins from the endophytic fungus Phomopsis sp. harbored in Garcinia kola (Heckel) nut” (BMC Complementary and Alternative Medicine, 2016)
≈ marks a conversion by molar mass, not a printed value. Read-outs that look alike come from different tables or passages of the source.

Columns and labels:
Hemolytic assay = type: cell-based; conditions: male, 1% human red blood cell suspension, 512 μg/mL (highest concentration tested), 1% human red blood cells, PBS pH 7.4, 37 °C
Procedure: Whole blood (10 mL) from a healthy person was collected into a conical tube containing heparin as an anticoagulant. Erythrocytes were harvested by centrifugation at room temperature for 10 min at 1,000 × g and were washed three times in PBS solution. The top layer (plasma) and the next, milky layer (buffy coat with a layer of platelets on top of it) were then carefully aspirated and discarded. The cell pellet was resuspended in 10 mL of PBS solution and mixed by gentle aspiration with a Pasteur pipette. This cell suspension was used immediately.
For the normal human red blood cells, which were in suspension, the cytotoxicity was evaluated as previously described. Compounds 1–3, at concentrations ranging from 32 to 512 μg/mL, were incubated with an equal volume of 1% human red blood cells in phosphate buffered saline (10 mM PBS, pH 7.4) at 37 °C for 1 h. Tetracycline was tested simultaneously. Non-hemolytic and 100% hemolytic controls were the buffer alone and the buffer containing 1% Triton X-100, respectively. Cell lysis was monitored by measuring the release of hemoglobin at 595 nm with a spectrophotometer (Thermo Scientific, USA). Percent hemolysis was calculated as follows: [(A595 of sample treated with compound - A595 of sample treated with buffer)/(A595 of sample treated with Triton X-100 – A595 of sample treated with buffer)] x 100.

S. flexneri SDINT = assay: Broth microdilution MIC/MBC; type: cell-based, Shigella flexneri; conditions: for MBC/MIC / MBC / MIC: S. flexneri SDINT; for MBC / MIC: Shigella flexneri; for MBC: 99.9% reduction in CFU after 24 h; for MIC: 24 h at 37 °C, read-out: MIC
Procedure: (§1) A total of six bacterial strains were tested for their susceptibility to compounds and these strains were taken from our laboratory collection (kindly provided by Dr. T. Ramamurthy, NICED, Kolkata). Among the clinical strains of Vibrio cholerae used in this study, strains NB2 and SG24 and CO6 belonged to O1 and O139 serotypes, respectively. […]. The other strains used in this study were V. cholerae non-O1, non-O139 (strain PC2); […]. The American Type Culture Collection (ATCC) strain, Staphylococcus aureus ATCC 25923, was used for quality control. The bacterial strains were maintained on agar slant at 4 °C and subcultured on a fresh appropriate agar plates 24 h prior to any antibacterial test. The Mueller Hinton Agar (MHA) was used for the activation of bacteria. The Mueller Hinton Broth (MHB) and nutrient agar (Hi-Media) were used for the MIC and MBC determinations respectively.
(§2) Suspensions of bacteria were prepared in MHB from cells arrested during their logarithmic phase growth (4 h) on MHB at 37 °C. The turbidity of the microbial suspension was read spectrophotometrically at 600 nm and adjusted to an OD of 0.1 with MHB, which is equivalent to 1 × 10^8 CFU/mL. From this prepared solution, other dilutions were made with MHB to yield 1x10^6 CFU/mL.
(§3) MIC and MBC of compounds 1–3 were assessed using the broth microdilution method recommended by the National Committee for Clinical Laboratory Standards with slight modifications. Each test sample was dissolved in dimethylsulfoxide (DMSO) to give a stock solution. The 96-well round bottom sterile plates were prepared by dispensing 180 μL of the inoculated broth (1x10^6 CFU/mL) into each well. A 20 μL aliquot of the stock solution of compound was added. The concentrations of sample tested were 0.125, 0.25, 0.50, 1, 2, 4, 8, 16, 32, 64, 128, 256 and 512 μg/mL. […] Dilutions of tetracycline and ampicillin served as positive controls, while broth with 20 μL of DMSO was used as negative control. The ATCC strain Staphylococcus aureus ATCC 25923 was included for quality assurance purposes. Plates were covered and incubated for 24 h at 37 °C. After incubation, minimum inhibitory concentrations (MIC) were read visually; all wells were plated to nutrient agar (Hi-Media) and incubated. The minimal bactericidal concentration (MBC) was defined as a 99.9% reduction in CFU from the starting inoculums after 24 h incubation interval.

V. cholerae PC2 = assay: Broth microdilution MIC/MBC; type: cell-based, Vibrio cholerae; conditions: V. cholerae PC2; for MBC / MIC: Vibrio cholerae; for MBC: 99.9% reduction in CFU after 24 h; for MIC: 24 h at 37 °C, read-out: MIC
Procedure: as §1, §2, §3

V. cholerae CO6 = assay: Broth microdilution MIC/MBC; type: cell-based, Vibrio cholerae; conditions: for MBC/MIC / MBC / MIC: V. cholerae CO6; for MBC / MIC: Vibrio cholerae; for MBC: 99.9% reduction in CFU after 24 h; for MIC: 24 h at 37 °C
Procedure: as §1, §2, §3

V. cholerae SG24 = assay: Broth microdilution MIC/MBC; type: cell-based, Vibrio cholerae; conditions: for MBC / MIC: Vibrio cholerae; for MBC: 99.9% reduction in CFU after 24 h; for MIC: 24 h at 37 °C
Procedure: as §1, §2, §3

V. cholerae NB2 = assay: Broth microdilution MIC/MBC; type: cell-based, Vibrio cholerae; conditions: for MBC/MIC / MBC / MIC: V. cholerae NB2; for MBC / MIC: Vibrio cholerae; for MBC: 99.9% reduction in CFU after 24 h; for MIC: 24 h at 37 °C, read-out: MIC
Procedure: as §1, §2, §3

S. aureus ATCC 25923 = assay: Broth microdilution MIC/MBC; type: cell-based, Staphylococcus aureus; conditions: for MBC/MIC / MBC / MIC: S. aureus ATCC 25923; for MBC / MIC: Staphylococcus aureus, ATCC25923; for MBC: 99.9% reduction in CFU after 24 h; for MIC: 24 h at 37 °C
Procedure: as §1, §2, §3

MTT cytotoxicity assay [1] = type: cell-based, Human; conditions: human, HeLa cells; MTT, 24 h, mean ± SD; read-out: Cytotoxicty (LC50) HeLa cells
Procedure: (§4) HeLa (Human cervical cancer cell line, ATCC No. CCL-2) and Vero cells (African green monkey kidney cells, normal non-cancer cells, ATCC No. CCL-81), obtained from the American Type Culture Collection (ATCC) were used in this study. Cytotoxic activity was determined using the 3-(4,5-dimethylthiazol-2-yl)-2,5-diphenyltetrazolium bromide (MTT, Sigma, USA) assay reported by Mosmann for the HeLa and Vero cells. This cell viability assay is based on living cell‘s property to transform the MTT dye tetrazolium ring into a purple-colored formazan structure due to the action of mitochondrial and other dehydrogenases inside the cell. The color intensity yielded by the cell population is directly proportional to the number of viable cells, and one can quantify the absorbance measurements using mathematical parameters. Each test sample was dissolved in dimethylsulfoxide (DMSO) to give a stock solution. Compounds 1–3 were prepared from the stock solutions by serial dilution in RPMI 1640 to give a volume of 100 μL in each well of a microtiter plate (96-well). Each well was filled with 100 μL of cells at 2 × 10^5 cells/mL. The assay for each concentration of compound was performed in triplicates and the culture plates were kept at 37 °C with 5% (v/v) CO2 for 24 h. After removing the supernatant of each well and washing twice by PBS, 20 μL of MTT solution (5 mg/mL in PBS) and 100 μL of medium were then introduced. After 4 h of incubation, 100 μL of DMSO were added to each well to dissolve the formazan crystals and the absorbance values at 490 nm were measured with a microplate reader (Bio-RAD 680, USA). The relative cell viability (%) was expressed as a relative percentage of treated cells to the untreated control cells (TC/UC × 100). The rate of cell inhibition was calculated using the following formula: inhibition rate = [1- (ODtest/ODnegative control)] × 100%. The LC50 values were calculated as the concentration of test sample resulting in a 50% reduction of absorbance compared to untreated cells. Cells treated with 5-fluorouridine + RPMI 1640 served as positive control while cells left untreated + 1% (v/v) DMSO + RPMI 1640 were used as negative control.

HeLa cells = assay: MTT cytotoxicity assay; type: cell-based, Human; conditions: SI = LC50 on Vero cells / LC50 on HeLa cells
Procedure: as §4

MTT cytotoxicity assay [2] = type: cell-based; conditions: African green monkey, Vero cells, normal non-cancer cells, mean ± SD, read-out: Cytotoxicty (LC50) Vero cells
Procedure: as §4

[3] = tested on: studied microorganisms (six bacterial strains); assay: Antibacterial spectrum over the six tested strains (broth microdilution); type: cell-based; conditions: out of 6 strains; concentrations up to 512 μg/mL
Procedure: as §1, §3

SMILES | hemolysis at 1 h, 512 μg/mL (Hemolytic assay) | MBC/MIC (S. flexneri SDINT) | MBC (S. flexneri SDINT) | MIC (S. flexneri SDINT) | MBC (V. cholerae PC2) | MIC (V. cholerae PC2) | MBC/MIC (V. cholerae CO6) | MBC (V. cholerae CO6) | MIC (V. cholerae CO6) | MBC (V. cholerae SG24) | MIC (V. cholerae SG24) | MBC/MIC (V. cholerae NB2) | MBC (V. cholerae NB2) | MIC (V. cholerae NB2) | MBC/MIC (S. aureus ATCC 25923) | MBC (S. aureus ATCC 25923) | MIC (S. aureus ATCC 25923) | CC50 at 24 h (MTT cytotoxicity assay [1]) | Selectivity Index HeLa cells (HeLa cells) | CC50 at 24 h (MTT cytotoxicity assay [2]) | further results
CN(C)[C@@H]1C(O)=C(C(N)=O)C(=O)[C@@]2(O)C(O)=C3C(=O)c4c(O)cccc4[C@@](C)(O)[C@H]3C[C@@H]12 [Tetracycline, reference compound] | < 10% | 2 | 32 µg/mL (≈ 72 µM) | 16 µg/mL (≈ 36 µM) | 1 µg/mL (≈ 2.25 µM) | 0.5 µg/mL (≈ 1.13 µM) | 4 | 8 µg/mL (≈ 18 µM) | 2 µg/mL (≈ 4.5 µM) | 1 µg/mL (≈ 2.25 µM) | 0.5 µg/mL (≈ 1.13 µM) | 4 | 2 µg/mL (≈ 4.5 µM) | 0.5 µg/mL (≈ 1.13 µM) | 2 | 32 µg/mL (≈ 72 µM) | 16 µg/mL (≈ 36 µM) |  |  |  | MBC/MIC (V. cholerae PC2): 2; MBC/MIC (V. cholerae SG24): 2
O=c1[nH]c(=O)n([C@@H]2O[C@H](CO)[C@@H](O)[C@H]2O)cc1F [Compound 5-FU, 5-Fluorouridine, reference compound] |  |  |  |  |  |  |  |  |  |  |  |  |  |  |  |  |  | 0.25 ± 0.05 µg/mL (≈ 0.953 µM) | 18.52 | 4.63 ± 0.17 µg/mL (≈ 17.7 µM) | 
C=C1[C@@H](C)C2[C@H](Cc3ccccc3)NC(=O)[C@]23[C@H](O)/C=C/[C@](C)(OC)C[C@@H](C)C/C=C/[C@@H]3[C@@H]1O (some centres unmarked) [Compound 1, 18-metoxycytochalasin J] | < 10% | 1 | 128 µg/mL (≈ 275 µM) | 128 µg/mL (≈ 275 µM) | > 512 µg/mL | > 512 µg/mL | 1 | 512 µg/mL (≈ 1100 µM) | 512 µg/mL (≈ 1100 µM) | > 512 µg/mL | > 512 µg/mL | 1 | 512 µg/mL (≈ 1100 µM) | 512 µg/mL (≈ 1100 µM) | 1 | 128 µg/mL (≈ 275 µM) | 128 µg/mL (≈ 275 µM) | 8.18 ± 0.92 µg/mL (≈ 17.6 µM) | 11.37 | 93 ± 2.54 µg/mL (≈ 200 µM) | share of the studied microorganisms on which inhibitory effects were noted [3]: 66.66%; Selectivity Index S. flexneri SDINT (S. flexneri SDINT; SI = LC50 on Vero cells / MIC): 0.72; Selectivity Index V. cholerae CO6 (V. cholerae CO6; SI = LC50 on Vero cells / MIC): 0.18; Selectivity Index V. cholerae NB2 (V. cholerae NB2; SI = LC50 on Vero cells / MIC): 0.18; Selectivity Index S. aureus ATCC 25923 (S. aureus ATCC 25923; SI = LC50 on Vero cells / MIC): 0.72
